Test [1] has as its target T1, Xanthine dehydrogenase/oxidase (Bos taurus, UniProt P80457). Description: Inhibition of cow milk xanthine oxidase at 50 ug/mL. The settings on record: cattle.
In test [2] the target is T1, Xanthine dehydrogenase/oxidase. Briefly: Inhibition of cow milk xanthine oxidase.

The text below walks through data of ChEMBL document CHEMBL1150752, “Inhibition of cow's milk xanthine oxidase by flavonoids” (J Nat Prod, 1988).

As usually defined, the inhibition is the percentage by which the read-out fell short of the control. Read a low inhibition as a response near the control. The IC50 is the concentration that inhibits the measured activity by half. A lower IC50 goes with inhibition by little substance.

T1 sequence (P80457 whole entry): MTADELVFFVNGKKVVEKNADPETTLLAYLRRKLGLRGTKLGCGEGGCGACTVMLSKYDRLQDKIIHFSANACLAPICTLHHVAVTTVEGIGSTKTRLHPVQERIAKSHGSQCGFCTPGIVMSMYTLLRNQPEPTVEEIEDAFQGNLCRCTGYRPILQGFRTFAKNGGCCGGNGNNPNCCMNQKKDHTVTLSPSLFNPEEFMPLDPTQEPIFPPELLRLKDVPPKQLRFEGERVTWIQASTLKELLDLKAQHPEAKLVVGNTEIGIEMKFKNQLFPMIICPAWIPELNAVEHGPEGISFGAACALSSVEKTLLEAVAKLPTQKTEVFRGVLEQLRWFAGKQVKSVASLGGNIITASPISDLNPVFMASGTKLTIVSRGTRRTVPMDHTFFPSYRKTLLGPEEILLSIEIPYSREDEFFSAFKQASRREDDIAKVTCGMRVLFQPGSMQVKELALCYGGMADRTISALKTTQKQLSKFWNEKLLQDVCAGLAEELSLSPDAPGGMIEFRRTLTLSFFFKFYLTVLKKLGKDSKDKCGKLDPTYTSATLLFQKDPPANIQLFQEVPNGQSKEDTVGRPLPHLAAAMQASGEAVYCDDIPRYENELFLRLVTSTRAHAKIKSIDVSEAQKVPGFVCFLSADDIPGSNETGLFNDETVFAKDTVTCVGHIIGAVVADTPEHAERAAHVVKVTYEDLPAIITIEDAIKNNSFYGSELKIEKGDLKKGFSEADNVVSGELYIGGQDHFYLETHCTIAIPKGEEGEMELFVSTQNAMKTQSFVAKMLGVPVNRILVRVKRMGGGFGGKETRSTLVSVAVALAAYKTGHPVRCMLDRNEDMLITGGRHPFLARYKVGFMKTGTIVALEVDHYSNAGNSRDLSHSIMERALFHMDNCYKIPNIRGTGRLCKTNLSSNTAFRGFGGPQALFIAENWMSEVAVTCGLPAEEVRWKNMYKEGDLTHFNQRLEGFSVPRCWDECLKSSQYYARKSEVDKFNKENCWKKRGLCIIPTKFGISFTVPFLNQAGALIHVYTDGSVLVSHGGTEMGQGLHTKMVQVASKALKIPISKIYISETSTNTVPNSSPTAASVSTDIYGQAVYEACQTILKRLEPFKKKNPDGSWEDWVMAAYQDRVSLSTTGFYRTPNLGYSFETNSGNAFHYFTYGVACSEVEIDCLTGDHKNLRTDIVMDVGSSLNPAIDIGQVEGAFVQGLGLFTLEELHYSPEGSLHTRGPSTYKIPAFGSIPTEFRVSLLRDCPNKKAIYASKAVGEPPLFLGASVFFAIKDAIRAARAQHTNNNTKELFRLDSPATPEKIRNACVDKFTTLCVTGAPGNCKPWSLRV

Take `COc1c(-c2ccc(O)c(O)c2)oc2cc(O)cc(O)c2c1=O` [3-O-METHYLQUERCETIN]: in test [1], the inhibition at 50 µg/mL is 98.5%. In test [2], this compound returned an IC50 of 31.6 µM.
For `O=c1cc(-c2ccccc2)oc2cc(O)c(O)c(O)c12` [BAICALEIN], the inhibition at 50 µg/mL in test [1] amounted to 85.5%. The compound further returned an IC50 in test [2] of 3.3 µM.
For the compound `O=C1CC(c2ccc(O)c(O)c2)Oc2c1c(O)cc(O)c2[C@@H]1C(=O)c2c(O)cc(O)cc2O[C@H]1c1ccc(O)cc1` (stereo partly drawn) [FUKUGETIN], in test [1], the inhibition at 50 µg/mL worked out at 97.2%. Besides, in test [2], it took 22.3 µM to reach half-maximal inhibition (IC50).
Take `COc1c(-c2ccc(O[C@@H]3O[C@H](CO)[C@@H](O)[C@H](O)[C@H]3O)c(O)c2)oc2cc(O)cc(O)c2c1=O`: in test [1], testing at 50 µg/mL gave an inhibition of 69.1%. Besides, the IC50 in test [2] worked out at 35.6 µM.
Taken in the same sequence, the figures for `COc1ccc(-c2cc(=O)c3c(O)cc(O)cc3o2)cc1` [ACACETIN] were 55.7% and 14.1 µM.
Regarding `COc1cc(-c2oc3cc(O)cc(O)c3c(=O)c2OS(=O)(=O)O)ccc1O` [PERSICARIN], the inhibition at 50 µg/mL in test [1] was found to be 90.3%. The compound further returned an IC50 in test [2] of 34.6 µM.
Taken in the same sequence, the figures for `O=C1c2c(O)cc(O)cc2O[C@H](c2ccc(O)cc2)[C@H]1O` [DIHYDROKAEMPFEROL] were 66.9% and 93.8 µM.
In test [1], `COc1c(O)cc(O)c2c(=O)cc(-c3ccccc3)oc12` [WOGONIN] displayed an inhibition at 50 µg/mL of 50.2%. Also, 176 µM corresponded to half-maximal inhibition in test [2] (IC50).
As to `O=c1cc(-c2ccc(O)c(-c3c(O)cc(O)c4c(=O)cc(-c5ccc(O)cc5)oc34)c2)oc2cc(O)cc(O)c12` [AMENTOFLAVONE], the inhibition at 50 µg/mL in test [1] stood at 100%. Further, the IC50 in test [2] amounted to 35.3 µM.
For `O=c1cc(-c2ccc(O)cc2)oc2cc(O)c(O)c(O)c12` [SCUTELLAREIN], in that order: 67.3% and 12.6 µM.
Taken in the same sequence, the figures for `O=c1cc(-c2ccc(O)c(O)c2)oc2cc(O[C@@H]3O[C@H](CO)[C@@H](O)[C@H](O)[C@H]3O)cc(O)c12` (single isomer, unassigned) [GALUTEOLIN] were 67.2% and 75.9 µM.
As for `COc1c(O)cc2oc(-c3ccc(O)cc3)c(OC)c(=O)c2c1O` [3,6-DIMETHOXY KAEMPFEROL], the inhibition at 50 µg/mL in test [1] stood at 95%. Further, in test [2], the midpoint of inhibition, the IC50, lay at 0.03 µM.
`O=c1c(O[C@@H]2O[C@H](CO)[C@H](O)[C@H](O)[C@H]2O)c(-c2ccc(O)c(O)c2)oc2cc(O)cc(O)c12` [HYPEROSIDE] had an inhibition at 50 µg/mL in test [1] of 43%.
Still for that read-out and setting: the same measure for `COc1cc(-c2cc(=O)c3c(O)cc(O[C@H]4O[C@@H](C(=O)O)[C@H](O)[C@@H](O)[C@@H]4O)cc3o2)ccc1O`: 0.3%; for `O=c1c(O[C@@H]2OC[C@@H](O)[C@H](O)[C@H]2O)c(-c2ccc(O)c(O)c2)oc2cc(O)cc(O)c12` [REYNOUTRIN]: 33.1%.
For `COc1c2c(cc3occ(-c4ccc(O)cc4)c(=O)c13)OCO2` [IRISOLONE], in test [1], 50 µg/mL produced 0% inhibition.
